Data from US12096773B2, “Herbicidal composition” (ISHIHARA SANGYO KAISHA, LTD., priority 2019, dated 2024).

Columns and labels:
Format in all cases: in vivo
[1] = test system: horseweed (Conyza canadensis(L.) Cron.); assay: Example 2 pot test, foliar treatment of horseweed, visual growth inhibition; conditions: 19th day after foliar treatment
From the text: (§1) Upland field soil was put into a 1/1,000,000 hectare pot, and seeds of horseweed (Conyza canadensis(L.) Cron.) were sown.

[2] = test system: horseweed (Conyza canadensis(L.) Cron.); assay: Example 3 pot test, foliar treatment of horseweed, growth inhibition over time; conditions: for growth inhibition effect (in words): used alone, 19th day after the foliar treatment
From the text: as §1

[3] = test system: common ragweed (Ambrosia elatior L.); assay: Example 6 pot test, foliar treatment, common ragweed
From the text: (§2) Upland field soil was put into a 1/1,000,000 hectare pot, and seeds of common ragweed (Ambrosia elatior L.) and Kochia (Kochia scoparia L.) were sown.

[4] = test system: crabgrass (Digitaria sanguinalis L.); assay: Example 8 pot test, foliar treatment, crabgrass
From the text: (§3) Upland field soil was put into a 1/1,000,000 hectare pot, and seeds of goosegrass (Eleusine indica L.), barnyardgrass (Echinochloa crus-galli L.), giant foxtail (Setaria faberi Herrm.) and crabgrass (Digitaria sanguinalis L.) were sown.

[5] = test system: horseweed (Conyza canadensis(L.) Cron.); assay: Example 1 pot test, foliar treatment of horseweed, visual growth inhibition; conditions: 21st day after foliar treatment
From the text: as §1

[6] = test system: yellow nutsedge (Cyperus esculentus L.); assay: Example 5 pot test, foliar treatment, yellow nutsedge; conditions: 22nd day after foliar treatment
From the text: Upland field soil was put into a 1/1,000,000 hectare pot, and tubers of yellow nutsedge (Cyperus esculentus L.) were embedded.

[7] = test system: Kochia (Kochia scoparia L.); assay: Example 6 pot test, foliar treatment, Kochia
From the text: as §2

[8] = test system: dandelion (Taraxacum officinale); assay: Example 4 pot test, foliar treatment, dandelion
From the text: (§4) Upland field soil was put into a 1/1,000,000 hectare pot, and seeds of black nightshade (Solanum nigrum L.), wild oat (Avena fatua L.) and dandelion (Taraxacum officinale) were sown.

[9] = test system: barnyardgrass (Echinochloa crus-galli L.); assay: Example 8 pot test, foliar treatment, barnyardgrass
From the text: as §3

[10] = test system: Kochia (Kochia scoparia L.); assay: Example 9 pot test, foliar treatment, Kochia
From the text: (§5) Upland field soil was put into a 1/1,000,000 hectare pot, and seeds of redroot pigweed (Amaranthus retroflexus L.), Kochia (Kochia scoparia L.) and Chenopodium album L. var. centrorubrum Makino were sown.

[11] = test system: redroot pigweed (Amaranthus retroflexus L.); assay: Example 9 pot test, foliar treatment, redroot pigweed
From the text: as §5

[12] = test system: giant foxtail (Setaria faberi Herrm.); assay: Example 8 pot test, foliar treatment, giant foxtail
From the text: as §3

[13] = test system: black nightshade (Solanum nigrum L.); assay: Example 4 pot test, foliar treatment, black nightshade
From the text: as §4

[14] = test system: Chenopodium album L. var. centrorubrum Makino; assay: Example 9 pot test, foliar treatment, Chenopodium album var. centrorubrum
From the text: as §5

[15] = test system: goosegrass (Eleusine indica L.); assay: Example 8 pot test, foliar treatment, goosegrass
From the text: as §3

[16] = test system: wild oat (Avena fatua L.); assay: Example 4 pot test, foliar treatment, wild oat
From the text: as §4

## COC(=O)CCNC(=O)C(C)Sc1cc(-n2c(=O)cc(C(F)(F)F)n(C)c2=O)c(F)cc1Cl (stereo not drawn) [Tiafenacil, tiafenacil]
[1]; dose 25 g/ha
  Growth inhibition rate (%): 23%
[2]; dose 50 g/ha
  Growth inhibition rate (%) 19th day: 23%
  Growth inhibition rate (%) 27th day: 20%
  Growth inhibition rate (%) 42nd day: 20%
[2]; dose 100 g/ha
  Growth inhibition rate (%) 19th day: 50%
  Growth inhibition rate (%) 27th day: 43%
  Growth inhibition rate (%) 42nd day: 30%
[2]
  growth inhibition effect (in words): no sufficient growth inhibition effect
[3]; dose 25 g/ha
  Growth inhibition rate (%) Common Ragweed (6th day): 50%
[3]; dose 50 g/ha
  Growth inhibition rate (%) Common Ragweed (6th day): 50%
[4]; dose 2.5 g/ha
  Growth inhibition rate (%) Crabgrass (18th day): 30%
[5]; dose 25 g/ha
  Growth inhibition rate (%): 33%
[5]; dose 50 g/ha
  Growth inhibition rate (%): 40%
[6]; dose 50 g/ha
  Growth inhibition rate (%) Yellow nutsedge: 35%
[7]; dose 25 g/ha
  Growth inhibition rate (%) Kochia (10th day): 30%
[7]; dose 50 g/ha
  Growth inhibition rate (%) Kochia (10th day): 30%
[8]; dose 25 g/ha
  Growth inhibition rate (%) Dandelion (10th day): 30%
[9]; dose 2.5 g/ha
  Growth inhibition rate (%) Barnyardgrass (11th day): 30%
[10]; dose 1 g/ha
  Growth inhibition rate (%) Kochia (14th day): 13%
[10]; dose 2 g/ha
  Growth inhibition rate (%) Kochia (14th day): 23%
[11]; dose 1 g/ha
  Growth inhibition rate (%) Red root pigweed (8th day): 50%
[12]; dose 2.5 g/ha
  Growth inhibition rate (%) Giant foxtail (7th day): 80%
[13]; dose 25 g/ha
  Growth inhibition rate (%) Black nightshade (27th day): 58%
[14]; dose 1 g/ha
  Growth inhibition rate (%) Chenopodium album L. var. centrorubrum Makino (14th day): 3%
[14]; dose 2 g/ha
  Growth inhibition rate (%) Chenopodium album L. var. centrorubrum Makino (14th day): 30%

## CCn1ncc(C(=O)c2ccc(S(C)(=O)=O)c(OCCOC)c2C)c1OC(C)OC(=O)OC (stereo not drawn) [Tolpyralate, tolpyralate]
[1]; dose 125 g/ha
  Growth inhibition rate (%): 33%
[1]; dose 250 g/ha
  Growth inhibition rate (%): 37%
[2]; dose 5 g/ha
  Growth inhibition rate (%) 19th day: 20%
  Growth inhibition rate (%) 27th day: 47%
  Growth inhibition rate (%) 42nd day: 23%
[2]; dose 10 g/ha
  Growth inhibition rate (%) 19th day: 17%
  Growth inhibition rate (%) 27th day: 37%
  Growth inhibition rate (%) 42nd day: 47%
[2]
  growth inhibition effect (in words): no sufficient growth inhibition effect
[3]; dose 15 g/ha
  Growth inhibition rate (%) Common Ragweed (6th day): 15%
[3]; dose 30 g/ha
  Growth inhibition rate (%) Common Ragweed (6th day): 15%
[3]; dose 50 g/ha
  Growth inhibition rate (%) Common Ragweed (6th day): 10%
[4]; dose 1.5 g/ha
  Growth inhibition rate (%) Crabgrass (18th day): 30%
[4]; dose 3 g/ha
  Growth inhibition rate (%) Crabgrass (18th day): 40%
[4]; dose 5 g/ha
  Growth inhibition rate (%) Crabgrass (18th day): 50%
[5]; dose 15 g/ha
  Growth inhibition rate (%): 33%
[5]; dose 30 g/ha
  Growth inhibition rate (%): 30%
[5]; dose 50 g/ha
  Growth inhibition rate (%): 30%
[6]; dose 15 g/ha
  Growth inhibition rate (%) Yellow nutsedge: 40%
[6]; dose 30 g/ha
  Growth inhibition rate (%) Yellow nutsedge: 50%
[15]; dose 1.5 g/ha
  Growth inhibition rate (%) Goosegrass (5th day): 15%
[15]; dose 3 g/ha
  Growth inhibition rate (%) Goosegrass (5th day): 15%
[15]; dose 5 g/ha
  Growth inhibition rate (%) Goosegrass (5th day): 23%
[7]; dose 15 g/ha
  Growth inhibition rate (%) Kochia (10th day): 15%
[7]; dose 30 g/ha
  Growth inhibition rate (%) Kochia (10th day): 20%
[7]; dose 50 g/ha
  Growth inhibition rate (%) Kochia (10th day): 15%
[8]; dose 15 g/ha
  Growth inhibition rate (%) Dandelion (10th day): 30%
[8]; dose 30 g/ha
  Growth inhibition rate (%) Dandelion (10th day): 30%
[8]; dose 50 g/ha
  Growth inhibition rate (%) Dandelion (10th day): 30%
[9]; dose 1.5 g/ha
  Growth inhibition rate (%) Barnyardgrass (11th day): 45%
[9]; dose 3 g/ha
  Growth inhibition rate (%) Barnyardgrass (11th day): 45%
[9]; dose 5 g/ha
  Growth inhibition rate (%) Barnyardgrass (11th day): 40%
[10]; dose 1.5 g/ha
  Growth inhibition rate (%) Kochia (14th day): 10%
[10]; dose 3 g/ha
  Growth inhibition rate (%) Kochia (14th day): 23%
[10]; dose 5 g/ha
  Growth inhibition rate (%) Kochia (14th day): 25%
[11]; dose 1.5 g/ha
  Growth inhibition rate (%) Red root pigweed (8th day): 23%
[11]; dose 3 g/ha
  Growth inhibition rate (%) Red root pigweed (8th day): 25%
[11]; dose 5 g/ha
  Growth inhibition rate (%) Red root pigweed (8th day): 30%
[16]; dose 15 g/ha
  Growth inhibition rate (%) Wild oat (21st day): 10%
[16]; dose 30 g/ha
  Growth inhibition rate (%) Wild oat (21st day): 28%
[16]; dose 50 g/ha
  Growth inhibition rate (%) Wild oat (21st day): 30%
[12]; dose 1.5 g/ha
  Growth inhibition rate (%) Giant foxtail (7th day): 10%
[12]; dose 3 g/ha
  Growth inhibition rate (%) Giant foxtail (7th day): 30%
[12]; dose 5 g/ha
  Growth inhibition rate (%) Giant foxtail (7th day): 40%
[13]; dose 15 g/ha
  Growth inhibition rate (%) Black nightshade (27th day): 72%
[13]; dose 30 g/ha
  Growth inhibition rate (%) Black nightshade (27th day): 79%
[13]; dose 50 g/ha
  Growth inhibition rate (%) Black nightshade (27th day): 78%
[14]; dose 1.5 g/ha
  Growth inhibition rate (%) Chenopodium album L. var. centrorubrum Makino (14th day): 10%
[14]; dose 3 g/ha
  Growth inhibition rate (%) Chenopodium album L. var. centrorubrum Makino (14th day): 10%
[14]; dose 5 g/ha
  Growth inhibition rate (%) Chenopodium album L. var. centrorubrum Makino (14th day): 15%
